Experimental data published in BindingDB's records for doi:10.1016/j.bmcl.2013.02.084 (Astrazeneca, 2013).

How the values were obtained:
[1] = molecular target: 2-acylglycerol O-acyltransferase 1 (human) (UniProt Q96PD6); assay: Inhibition of human recombinant MGAT1 expressed in insect cell membrane using 2-oleyl-sn-glycerol and [14C]-oleyl-coenzyme A as substrate after 10 to 15 mins by liquid scintillation counting analysis
[2] = molecular target: 2-acylglycerol O-acyltransferase 2 (human) (UniProt Q3SYC2); assay: Inhibition of human recombinant MGAT2 expressed in insect cell membrane using 2-oleoyl-sn-glycerol and oleoyl coenzyme A as substrate after 40 mins by Ellmans assay based rapidfire LCMS analysis
2-acylglycerol O-acyltransferase 2 (human), sequence (Q3SYC2 whole entry, looked up): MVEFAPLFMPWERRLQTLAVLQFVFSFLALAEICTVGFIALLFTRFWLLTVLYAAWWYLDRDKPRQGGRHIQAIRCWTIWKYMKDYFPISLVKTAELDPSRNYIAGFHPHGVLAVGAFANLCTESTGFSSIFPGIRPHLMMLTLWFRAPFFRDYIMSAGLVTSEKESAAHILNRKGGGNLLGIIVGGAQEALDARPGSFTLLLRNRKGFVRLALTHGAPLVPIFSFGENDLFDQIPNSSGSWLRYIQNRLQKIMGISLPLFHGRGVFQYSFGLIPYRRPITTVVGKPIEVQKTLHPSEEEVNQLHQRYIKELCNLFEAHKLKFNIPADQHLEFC

[3] = Inhibition of human recombinant MGAT3 expressed in insect cell membrane using 2-oleyl-sn-glycerol and [14C]-oleyl-coenzyme A as substrate after 10 to 15 mins by liquid scintillation counting analysis
[4] = molecular target: 2-acylglycerol O-acyltransferase 2 (mouse); assay: Inhibition of mouse recombinant MGAT2 expressed in insect cell membrane using 2-oleoyl-sn-glycerol and oleoyl coenzyme A as substrate after 40 mins by Ellmans assay based rapidfire LCMS analysis

2-acylglycerol O-acyltransferase 1 (human), sequence (Q96PD6 whole entry, looked up): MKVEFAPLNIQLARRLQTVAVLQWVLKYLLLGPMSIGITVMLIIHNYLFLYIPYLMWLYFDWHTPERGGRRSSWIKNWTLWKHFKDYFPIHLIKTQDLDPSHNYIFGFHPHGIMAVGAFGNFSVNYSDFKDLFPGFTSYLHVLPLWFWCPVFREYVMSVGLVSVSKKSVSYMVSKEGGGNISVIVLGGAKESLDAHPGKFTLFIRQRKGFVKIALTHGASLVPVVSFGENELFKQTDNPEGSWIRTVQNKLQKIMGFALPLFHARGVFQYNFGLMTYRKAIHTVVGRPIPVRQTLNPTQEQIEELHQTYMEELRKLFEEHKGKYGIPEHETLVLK

Question: Which IC50 [1] does the source give for CCC1(C)NC(=O)c2cc(S(=O)(=O)Nc3ccc(OC)cc3)ccc2NC1=O (stereo unspecified) here?
Answer: 0.032 µM

Question: What does the source list for CCC1(C)NC(=O)c2cc(S(=O)(=O)Nc3ccccc3Cl)ccc2NC1=O (stereo unspecified)?
Answer: IC50 [2]: 0.063 µM; IC50 [1]: 0.158 µM

Question: Which IC50 [3] does the source give for CCC1(C)NC(=O)c2cc(S(=O)(=O)Nc3ccc(Cl)cc3)ccc2NC1=O (stereo unspecified) here?
Answer: 0.398 µM

Question: What about the IC50 [4] of the same compound?
Answer: 0.004 µM

Question: And the IC50 [2]?
Answer: 0.025 µM

Question: What about the IC50 [1] of the same compound?
Answer: 0.05 µM

Question: With CCC1(C)NC(=O)c2cc(S(=O)(=O)Nc3ccccc3)ccc2NC1=O (stereo unspecified) as the compound, how does the IC50 [1] read?
Answer: 0.501 µM

Question: With CCC1(CC)CNc2ccc(S(=O)(=O)Nc3ccc(F)cc3F)cc2C(=O)N1 as the compound, how does the IC50 [2] read?
Answer: 0.0016 µM

Question: Which results are given for CCC1(C)C(=O)Nc2ccc(S(=O)(=O)Nc3ccc(F)cc3F)cc2C(=O)N1C (stereo unspecified)?
Answer: IC50 [4]: 0.631 µM; IC50 [2]: 7.94 µM

Question: For CCC1(C)NC(=O)c2cc(S(=O)(=O)Nc3ccc(Cl)cc3)ccc2N(C)C1=O (stereo unspecified), which IC50 [1] is on record?
Answer: 0.398 µM

Question: For CCC1(C)NC(=O)c2cc(S(=O)(=O)N(C)c3ccccc3)ccc2NC1=O (stereo unspecified), which IC50 [2] is on record?
Answer: > 100 µM

Question: With CCC1(C)NC(=O)c2cc(NS(=O)(=O)c3ccccc3)ccc2NC1=O (stereo unspecified) as the compound, how does the IC50 [2] read?
Answer: > 100 µM

Question: For O=C(Nc1ccc(Cl)cc1)c1ccc2c(c1)C(=O)NC1(CCC1)C(=O)N2, which IC50 [2] is on record?
Answer: > 100 µM

Question: Which IC50 [2] does the source give for CC1(C)COc2ccc(S(=O)(=O)Nc3ccc(Cl)cc3)cc2C(=O)N1 here?
Answer: 2 µM

Question: For CCC1(CC)CNc2ccc(S(=O)(=O)Nc3ccc(F)cc3F)cc2CN1, which IC50 [2] is on record?
Answer: 0.316 µM

Question: Which IC50 [2] does the source give for CCC1(CC)NCc2cc(S(=O)(=O)Nc3ccc(F)cc3F)ccc2NC1=O here?
Answer: 0.251 µM

Question: With CCC1(CC)NC(=O)c2cc(S(=O)(=O)Nc3ccc(F)cc3F)ccc2NC1=O as the compound, how does the IC50 [2] read?
Answer: 0.0032 µM

Question: For O=C1NC2(CCCC2)C(=O)Nc2ccc(S(=O)(=O)Nc3ccc(Cl)cc3)cc21, which IC50 [2] is on record?
Answer: 0.05 µM

Question: Which IC50 [2] does the source give for O=C1NC2(CCC2)C(=O)Nc2ccc(S(=O)(=O)Nc3ccc(Cl)cc3)cc21 here?
Answer: 0.079 µM

Question: Which IC50 [2] does the source give for CCCC1(C)NC(=O)c2cc(S(=O)(=O)Nc3ccc(F)cc3F)ccc2NC1=O (stereo unspecified) here?
Answer: 0.05 µM

Question: With CCC1NC(=O)c2cc(S(=O)(=O)Nc3ccccc3)ccc2NC1=O (stereo unspecified) as the compound, how does the IC50 [2] read?
Answer: 5.01 µM

Question: With CCC1(C)NC(=O)c2cc(S(=O)(=O)Nc3cccc(Cl)c3)ccc2NC1=O (stereo unspecified) as the compound, how does the IC50 [2] read?
Answer: 2 µM

Question: With CCC1(C)NC(=O)c2cc(S(=O)(=O)NCc3ccccc3)ccc2NC1=O (stereo unspecified) as the compound, how does the IC50 [2] read?
Answer: 7.94 µM

Question: Which IC50 [2] does the source give for CCC1(C)NC(=O)c2cc(S(=O)(=O)NC3CCCCC3)ccc2NC1=O (stereo unspecified) here?
Answer: 5.01 µM
